# In patent US20240285552A1 (priority 2020, published 2024):
# “And” between values parts separate entries of the source, which are not always exact repeats. Identical values can stand only once. “Also recorded” adds a separate entry of the source. Counter-ions that a name gives are not always drawn. Like-named read-outs stand apart in the source and are kept apart here.
# What was measured:
# SARS-CoV-2 USA_WA1/2020 = assay: microbe, parasite or virus in culture; assay type: cell-based
# [1] = molecular target: T1, rhACE2 and SARS-CoV-2 Spike (RBD) protein interaction (Homo sapiens, UniProt Q9BYF1); assay: Spike (RBD)-ACE2 binding assay (ELISA); design: species or system human; SARS-CoV-2; settings: for IC50: bell-shaped model, AMB, BHH
# T1 construct: purchased RayBiotech CoV-SACE2-1
# T1 sequence (Q9BYF1 18-740): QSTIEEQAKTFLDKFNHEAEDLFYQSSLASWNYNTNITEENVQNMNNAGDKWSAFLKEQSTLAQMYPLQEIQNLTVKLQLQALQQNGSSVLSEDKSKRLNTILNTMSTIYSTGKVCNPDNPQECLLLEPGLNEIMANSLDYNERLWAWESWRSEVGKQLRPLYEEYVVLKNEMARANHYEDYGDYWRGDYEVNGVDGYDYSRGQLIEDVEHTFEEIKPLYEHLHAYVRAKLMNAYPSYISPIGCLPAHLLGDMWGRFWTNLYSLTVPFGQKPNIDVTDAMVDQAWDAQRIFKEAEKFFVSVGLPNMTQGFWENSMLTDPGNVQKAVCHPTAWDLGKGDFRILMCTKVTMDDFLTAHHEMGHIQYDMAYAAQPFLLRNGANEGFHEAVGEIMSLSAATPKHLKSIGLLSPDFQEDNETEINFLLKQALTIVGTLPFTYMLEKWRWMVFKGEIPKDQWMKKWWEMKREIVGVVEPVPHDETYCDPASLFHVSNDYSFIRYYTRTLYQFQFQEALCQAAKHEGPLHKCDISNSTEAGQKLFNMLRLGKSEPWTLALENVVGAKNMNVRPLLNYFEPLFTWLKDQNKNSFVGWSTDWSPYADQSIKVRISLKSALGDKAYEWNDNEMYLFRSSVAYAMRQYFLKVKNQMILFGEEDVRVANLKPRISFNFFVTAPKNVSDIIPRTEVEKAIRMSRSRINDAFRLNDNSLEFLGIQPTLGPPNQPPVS
# [2] = tested on: SARS-CoV-2 spike pseudotyped lentivirus; assay: microbe, parasite or virus in culture; assay type: cell-based
# [3] = molecular target: T2, recombinant human ACE2 (rhACE2) (Homo sapiens, UniProt Q9BYF1); assay: ACE2 exopeptidase inhibitor screening assay (fluorogenic substrate), AMB and BHH; assay type: biochemical
# T2 construct: purchased BPS Bioscience 79923
# T2 sequence (Q9BYF1 18-805): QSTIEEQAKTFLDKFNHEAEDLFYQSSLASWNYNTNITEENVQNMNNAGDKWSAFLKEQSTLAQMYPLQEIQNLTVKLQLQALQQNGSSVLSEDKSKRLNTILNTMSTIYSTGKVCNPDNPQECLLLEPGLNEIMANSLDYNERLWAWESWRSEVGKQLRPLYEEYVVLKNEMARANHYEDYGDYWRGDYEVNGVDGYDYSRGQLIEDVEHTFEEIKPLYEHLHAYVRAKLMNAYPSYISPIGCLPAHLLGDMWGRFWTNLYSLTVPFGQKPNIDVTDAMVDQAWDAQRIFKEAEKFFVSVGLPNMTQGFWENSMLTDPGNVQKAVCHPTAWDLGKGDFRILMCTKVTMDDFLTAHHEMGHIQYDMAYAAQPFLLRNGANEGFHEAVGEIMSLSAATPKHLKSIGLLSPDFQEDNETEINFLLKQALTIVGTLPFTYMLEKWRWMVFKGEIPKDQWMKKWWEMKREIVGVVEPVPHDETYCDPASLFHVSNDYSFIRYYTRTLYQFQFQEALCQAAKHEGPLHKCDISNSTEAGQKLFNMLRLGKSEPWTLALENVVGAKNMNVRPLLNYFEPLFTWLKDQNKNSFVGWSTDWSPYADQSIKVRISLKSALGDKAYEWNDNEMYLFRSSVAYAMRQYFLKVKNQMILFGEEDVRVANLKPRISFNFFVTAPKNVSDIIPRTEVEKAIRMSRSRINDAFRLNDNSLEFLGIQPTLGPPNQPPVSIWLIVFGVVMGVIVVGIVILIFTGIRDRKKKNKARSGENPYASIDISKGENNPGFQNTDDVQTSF
# Method: ACE2 Inhibitor Screening Assay. An ACE2 exopeptidase Inhibitor screening assay kit with the fluorogenic substrate (Catalogue #79923) was purchased from BPS Bioscience (San Diego, CA) and modified to measure the exopeptidase activity of ACE2 in the presence and absence of inhibitors (BPSBioscience, 2022). Following the manufacturer's directions, the fluorescence assay was carried out in a 96-well black flat-bottom plate with a final reaction volume of 50 μL. 50 mM stock solutions of BHH and AMB in 100% DMSO were prepared. Compounds were serially diluted in DMSO as follows: 500, 250, 100, 50, 10, 1, 0.1 μM. All experiments were done in triplicates and repeated twice. A positive control of enzyme treated with vehicle alone (2 percent DMSO) and a blank control with no enzyme were included on each plate.
# Each reaction had 24 μL of purified recombinant human ACE2 protein (0.42 ng/L) in ACE2 buffer, 1 μL of the compound at different concentrations, and 25 μL ACE2 fluorogenic substrate. The final volume of the reaction was 50 μL. The reaction mixtures were incubated for 1 hr at room temperature (22° C.) and protected from light. After that, the fluorescence intensities (λExcitation=535 nm, λEmission=595 nm) were measured using a Spectramax iD3 multimode plate reader. The background hydrolysis was subtracted, and the data were fitted to a four-parameter logistic (variable slope) equation using GraphPad prism software 9.1.
# in vitro = settings: African green monkey
# ACE1 = molecular target: T3, ACE1 (Homo sapiens, UniProt P12821); assay: ACE1 activity assay (colorimetric); assay type: biochemical
# T3 construct: purchased Sigma-Aldrich MAK422
# T3 sequence (P12821 30-1306): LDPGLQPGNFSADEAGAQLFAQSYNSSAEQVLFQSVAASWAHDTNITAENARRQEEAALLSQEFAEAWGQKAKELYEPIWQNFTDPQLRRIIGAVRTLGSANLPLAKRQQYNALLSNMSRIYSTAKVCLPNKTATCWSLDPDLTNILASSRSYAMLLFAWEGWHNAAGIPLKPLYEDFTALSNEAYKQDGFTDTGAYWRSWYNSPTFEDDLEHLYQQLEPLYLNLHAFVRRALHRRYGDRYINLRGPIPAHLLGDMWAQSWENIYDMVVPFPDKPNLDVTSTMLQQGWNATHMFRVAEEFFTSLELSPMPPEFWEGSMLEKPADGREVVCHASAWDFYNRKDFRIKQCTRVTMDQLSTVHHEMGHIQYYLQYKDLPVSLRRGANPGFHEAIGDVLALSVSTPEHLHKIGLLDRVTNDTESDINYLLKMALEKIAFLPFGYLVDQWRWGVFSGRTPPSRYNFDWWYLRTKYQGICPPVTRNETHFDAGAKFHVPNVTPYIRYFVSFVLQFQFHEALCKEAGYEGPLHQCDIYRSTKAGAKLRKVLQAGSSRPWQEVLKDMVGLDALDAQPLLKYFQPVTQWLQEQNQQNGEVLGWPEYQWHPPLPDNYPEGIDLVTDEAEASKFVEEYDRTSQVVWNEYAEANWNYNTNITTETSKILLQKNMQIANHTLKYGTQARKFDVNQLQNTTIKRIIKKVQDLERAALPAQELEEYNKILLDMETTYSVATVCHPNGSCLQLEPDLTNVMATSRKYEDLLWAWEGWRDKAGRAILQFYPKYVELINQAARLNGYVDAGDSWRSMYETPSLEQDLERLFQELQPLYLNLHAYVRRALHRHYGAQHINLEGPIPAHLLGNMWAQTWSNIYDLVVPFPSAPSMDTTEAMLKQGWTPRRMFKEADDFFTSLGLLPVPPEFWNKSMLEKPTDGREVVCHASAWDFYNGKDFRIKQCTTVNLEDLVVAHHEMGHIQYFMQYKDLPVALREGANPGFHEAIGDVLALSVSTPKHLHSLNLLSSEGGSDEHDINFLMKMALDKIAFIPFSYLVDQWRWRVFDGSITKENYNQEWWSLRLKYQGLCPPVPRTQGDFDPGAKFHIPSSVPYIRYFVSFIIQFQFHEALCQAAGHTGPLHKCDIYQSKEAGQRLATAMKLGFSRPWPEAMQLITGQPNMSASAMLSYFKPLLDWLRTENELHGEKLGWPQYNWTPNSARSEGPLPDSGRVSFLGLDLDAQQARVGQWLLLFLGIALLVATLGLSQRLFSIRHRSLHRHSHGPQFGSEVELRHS
# Method: ACE1 Activity Assay. ACE1 Inhibitor Screening Kit (Cat #MAK422) was purchased from Sigma-Aldrich (St. Louis, MO) and adapted to determine the effect of BHH and AMB on the enzymatic activity of ACE (Aldrich, 2022). The in vitro colorimetric assay was performed in a transparent flat-bottom 96-well plate. 50 mm and 10 mm solutions of Captropil, a known ACE1 inhibitor were used as a positive inhibitor control. Stock solutions of the compounds were prepared in 100% Dimethyl sulfoxide (DMSO) and further serially diluted in DMSO as follows: 500, 100, 50,10,5,1 and 0.5 μm for AMB and the positive control Captropil. All experiments were performed in quadruplicates. Each plate contained positive controls (1% DMSO) and blank controls with no ACE1 enzyme. Specifically, 2.5 μl of serially diluted compounds were pre-incubated with 2 μl of ACE1 protein diluted in 38 μl of 1× assay diluent buffer for about 15 mins, at room temperature (22° C.). 157.5 μl of 1×ACE1 assay buffer (197.5 μl for −ve control) was added into the 96 well plates. The solution was mixed well and incubated at 37° C. for 15-20 minutes, protected from light. After that, 40 μl of the substrate was added to each well and mixed well. The absorbance was measured immediately at 345 nm (A345) in kinetic mode for 60 minutes.
smiles,measurement,setting,value
"Nc1c(Br)cc(Br)cc1CN[C@H]1CC[C@H](O)CC1 [AMB, 4-[(2-amino-3,5-dibromophenyl)methylamino]cyclohexan-1-ol; hydrochloride]",IC50,"SARS-CoV-2 USA_WA1/2020; Example C (Table 3), hydrochloride, read-out: IC 50 against SARS-COV-2 Induced Cytopathic Effect in Vero E6 Cells",> 150 µM
same,IC50,"SARS-CoV-2 USA_WA1/2020; Severe acute respiratory syndrome coronavirus 2, Vero C1008, Example C (Table 3), read-out: IC 50 against SARS-COV-2 Induced Cytopathic Effect in Vero E6 Cells",≥ 150 µM
same,IC50,"SARS-CoV-2 USA_WA1/2020; Severe acute respiratory syndrome coronavirus 2, Vero C1008, Vero E6, Example B, highest concentration tested 30 μM, read-out: IC50 against SARS-CoV-2 infection induced CPE",> 30 µM
same,inhibition at 30 µM,"SARS-CoV-2 USA_WA1/2020; Severe acute respiratory syndrome coronavirus 2, Vero C1008, at 30 μM, Example B, read-out: inhibition of SARS-CoV-2 induced CPE at maximum concentration",14.2%
same,effect on Spike (RBD)-rhACE2 interaction,"[1]; 100 μM to 100 nM, hydrochloride",did not produce a stimulation or enhancement of binding; also recorded: more potent at disrupting the interaction between ACE2 and RBD than BHH
same,IC50,"[1]; highest tested 100 μM, read-out: Estimated Relative IC50 against rhACE2 and RBD Interaction Assay, IC50_2",232 µM
same,IC50,"[1]; read-out: Estimated Relative IC50 against rhACE2 and RBD Interaction Assay, IC50_1",0.82 µM
same,Percent Inhibition of fusion of SARS-CoV-2 spike pseudotyped lentivirus with HEK293-ACE2 cells,"[2]; 10 μM, Table 3, hydrochloride",86% and 55%
same,Percent Inhibition of fusion of SARS-CoV-2 spike pseudotyped lentivirus with HEK293-ACE2 cells,"[2]; 25 μM, Table 3, hydrochloride",64%
same,"Percent (%) Inhibition of Pseudo virus Entry in HEK293 Kidney Cells, SARS-COV-2","[2]; 50 μM, Table 2, hydrochloride",46%
same,Percent Inhibition of fusion of SARS-CoV-2 spike pseudotyped lentivirus with HEK293-ACE2 cells,"[2]; 50 μM, Table 3, hydrochloride",59%
same,Percent Inhibition of fusion of SARS-CoV-2 spike pseudotyped lentivirus with HEK293-ACE2 cells,"[2]; 100 μM, Table 3, hydrochloride",47%
same,inhibition at 25 µM,"[2]; Severe acute respiratory syndrome coronavirus 2, 25 μM, Table 3, read-out: Percent Inhibition of fusion of SARS-CoV-2 spike pseudotyped lentivirus with HEK293-ACE2 cells",78%
same,inhibition at 50 µM,"[2]; Severe acute respiratory syndrome coronavirus 2, 50 μM, Table 3, read-out: Percent Inhibition of fusion of SARS-CoV-2 spike pseudotyped lentivirus with HEK293-ACE2 cells",72%
same,inhibition at 100 µM,"[2]; Severe acute respiratory syndrome coronavirus 2, 100 μM, Table 3, read-out: Percent Inhibition of fusion of SARS-CoV-2 spike pseudotyped lentivirus with HEK293-ACE2 cells",41%
same,inhibition at 10 µM,"[2]; Severe acute respiratory syndrome coronavirus 2, HEK293, 10 μM, Table 2, read-out: Percent (%) Inhibition of Pseudo virus Entry in HEK293 Kidney Cells, SARS-COV-2",2%
same,inhibition at 25 µM,"[2]; Severe acute respiratory syndrome coronavirus 2, HEK293, 25 μM, Table 2, read-out: Percent (%) Inhibition of Pseudo virus Entry in HEK293 Kidney Cells, SARS-COV-2",12%
same,inhibition at 50 µM,"[2]; Severe acute respiratory syndrome coronavirus 2, HEK293, 50 μM, Table 2, read-out: Percent (%) Inhibition of Pseudo virus Entry in HEK293 Kidney Cells, SARS-COV-2",~50%
same,inhibition at 100 µM,"[2]; Severe acute respiratory syndrome coronavirus 2, HEK293, 100 μM, Table 2, read-out: Percent (%) Inhibition of Pseudo virus Entry in HEK293 Kidney Cells, SARS-COV-2",89%
same,ACE2 Exopeptidase Activity: Percent Activity,[3]; 0.1 uM,148.7%
same,inhibition at 0.1 µM,"[3]; 0.1 uM, read-out: ACE2 Exopeptidase Activity: Percent Inhibition",-48.7%
same,ACE2 Exopeptidase Activity: Percent Activity,[3]; 1 uM,152.3%
same,inhibition at 1 µM,"[3]; 1 uM, read-out: ACE2 Exopeptidase Activity: Percent Inhibition",-52.3%
same,ACE2 Exopeptidase Activity: Percent Activity,[3]; 10 uM,159.9%
same,inhibition at 10 µM,"[3]; 10 uM, read-out: ACE2 Exopeptidase Activity: Percent Inhibition",-59.9%
same,ACE2 Exopeptidase Activity: Percent Activity,[3]; 50 uM,157.1%
same,inhibition at 50 µM,"[3]; 50 uM, read-out: ACE2 Exopeptidase Activity: Percent Inhibition",-57.1%
same,ACE2 Exopeptidase Activity: Percent Activity,[3]; 100 uM,156.9%
same,inhibition at 100 µM,"[3]; 100 uM, read-out: ACE2 Exopeptidase Activity: Percent Inhibition",-56.9%
same,ACE2 Exopeptidase Activity: Percent Activity,[3]; 250 uM,144.7%
same,inhibition at 250 µM,"[3]; 250 uM, read-out: ACE2 Exopeptidase Activity: Percent Inhibition",-44.7%
same,ACE2 Exopeptidase Activity: Percent Activity,[3]; 500 uM,141.0%
same,inhibition at 500 µM,"[3]; 500 uM, read-out: ACE2 Exopeptidase Activity: Percent Inhibition",-41%
same,effect on exopeptidase activity of rhACE2,[3]; tested 0.1 to 500 μM,did not inhibit
same,CC50 at 72 h,"in vitro; 50% cytotoxic concentration (CC50), Vero E6, 72 hours, Examples A and B, highest concentration 30 μM",> 30 µM
same,CC50 at 72 h,"in vitro; Cytotoxicity CC50, Vero E6, 72 hours, Example C (Table 4)",184 µM
same,remaining activity at 500 µM,"ACE1; 500 μM, read-out: ACE activity remaining",100%
same,effect on exopeptidase activity of ACE,ACE1; hydrochloride,did not inhibit the activity of ACE
